Experimental data: US20040048866A1 (priority 2002, published 2004)
Blank lines part the entries; values can stand above or below the compound they belong to.

Target: T1, α1 and β1 subunits of guanylate cyclase (sGC), expressed in Sf9 cells (Homo sapiens, UniProt Q02108+Q02153)
T1 construct: made in house; host or cells: Sf9 insect cells (baculovirus co-infection); high-speed supernatant used unpurified
T1 sequence (Q02108 1-690): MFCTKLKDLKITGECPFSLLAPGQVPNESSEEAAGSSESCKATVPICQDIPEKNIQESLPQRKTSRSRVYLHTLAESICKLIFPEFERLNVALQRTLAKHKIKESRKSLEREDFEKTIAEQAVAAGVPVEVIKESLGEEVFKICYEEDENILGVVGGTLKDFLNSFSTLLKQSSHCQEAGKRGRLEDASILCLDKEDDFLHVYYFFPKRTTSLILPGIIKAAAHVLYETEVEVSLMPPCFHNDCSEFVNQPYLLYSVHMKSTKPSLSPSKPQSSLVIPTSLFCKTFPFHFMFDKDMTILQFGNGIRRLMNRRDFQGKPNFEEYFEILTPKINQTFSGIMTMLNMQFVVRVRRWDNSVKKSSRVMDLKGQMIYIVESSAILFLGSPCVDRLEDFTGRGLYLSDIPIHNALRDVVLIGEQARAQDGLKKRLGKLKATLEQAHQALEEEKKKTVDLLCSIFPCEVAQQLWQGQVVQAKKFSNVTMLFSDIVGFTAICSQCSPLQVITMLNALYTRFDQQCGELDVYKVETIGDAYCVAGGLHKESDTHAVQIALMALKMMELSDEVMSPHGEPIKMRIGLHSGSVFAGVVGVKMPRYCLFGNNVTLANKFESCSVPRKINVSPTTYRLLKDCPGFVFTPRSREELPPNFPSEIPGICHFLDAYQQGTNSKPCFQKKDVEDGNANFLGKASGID
T1 sequence (Q02153 1-619): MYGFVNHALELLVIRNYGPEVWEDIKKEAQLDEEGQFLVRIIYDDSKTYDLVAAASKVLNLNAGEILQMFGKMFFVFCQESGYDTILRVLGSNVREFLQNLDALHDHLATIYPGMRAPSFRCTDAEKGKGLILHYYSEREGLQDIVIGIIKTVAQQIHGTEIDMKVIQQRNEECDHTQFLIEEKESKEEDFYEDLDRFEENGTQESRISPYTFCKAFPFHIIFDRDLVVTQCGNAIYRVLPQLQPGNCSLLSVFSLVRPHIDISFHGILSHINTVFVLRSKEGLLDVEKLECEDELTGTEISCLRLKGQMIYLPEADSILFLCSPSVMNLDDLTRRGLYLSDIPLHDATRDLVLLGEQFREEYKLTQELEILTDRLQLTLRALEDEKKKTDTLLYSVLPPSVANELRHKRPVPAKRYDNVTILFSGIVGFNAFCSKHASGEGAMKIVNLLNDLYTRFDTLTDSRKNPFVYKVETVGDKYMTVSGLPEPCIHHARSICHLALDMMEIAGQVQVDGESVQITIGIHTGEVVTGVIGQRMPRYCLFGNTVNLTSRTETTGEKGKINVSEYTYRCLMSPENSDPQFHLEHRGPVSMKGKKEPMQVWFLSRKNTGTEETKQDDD
Assay: Guanylate Cyclase Assay (formation of cyclic GMP from GTP)
Type: biochemical
Conditions: for Mean efficacy at 100 μM with 1 μM of SNP, [% of YC-1]: compound at 100 μM with 1 μM sodium nitroprusside (SNP), normalized to 100 μM YC-1 (without SNP) as 100%; for Emax at 100 µM: compound at 100 μM without SNP, normalized to activity of 100 μM YC-1 (without SNP) as 100%, read-out: Mean basal efficacy at 100 μM, [% of YC-1]; for Mean activation at 100 μM: (activity at 100 μM with 1 μM SNP − activity at 100 μM)/(activity of SNP at 1 μM − basal activity of sGC)
Method: Sf9 cells were cultured in Sf-90011 medium supplemented with 10% (v/v) fetal calf serum at 28° C. to give a count of 6×10^5 cells/ml. The cells were then infected with a mixture of the virus stocks for the α1 and β1 subunits of guanylate cyclase at a multiplicity of infection of 0.1 pfu/cell. The cells were harvested 72 hours after infection and were pelleted by centrifugation. The resulting cell pellets were homogenized with Polytron homogenizer in 3 volumes of 20 mM Tris-HCl (pH 7.6) containing 1 mM EDTA, 5 mM dithiothreitol, 90 mM NaCl, 10% glycerol, and protease inhibitors mix (Roche Molecular Biochemicals). The homogenate was centrifuged at 50,000×g for 60 minutes and the supernatant was aliquotted and stored at −80° C.
Compounds of the present invention were dissolved in DMSO to make 100 mM and saved as stocks at −20° C. When compounds were tested, 10-fold concentrated solutions with 10% DMSO were prepared. 10 μl of 10-fold concentrated compound solutions were added to the reaction mixture total of 100 μl.
Guanylate cyclase activity was measured by the formation of cyclic GMP from GTP in a total volume of 100 μl. Guanylate cyclase-expressed Sf9 cell high-speed supernatant (Sf9 high-speed sup) was used as an enzyme source for the assay. The reaction mixture containing 0.1 μl enzyme of Sf9 high-speed sup, compound solution, 50 mM Tris-HCl (pH 7.6), 4 mM MgCl2, 0.5 mM IBMX, 15 mM creatine phosphate, 20 μg creatine phosphokinase, 0.1% BSA and 1 mM GTP were incubated at 37° C. for 15 minutes. After the reaction, 0.9 ml of 50 mM sodium acetate buffer (pH 5.8) was added followed by boiling for 3 minutes to stop the reaction. The solution was centrifuged at 3000 rpm for 15 minutes at room temperature and cyclic GMP in 20 μl of the resulting supernatant was measured according to the protocol of Amersham cyclic GMP enzymeimmunoassay system (Amersham, RPN 226).
Compounds of the present invention were tested at 100 μM with and without 1 μM of sodium nitroprusside (SNP). YC-1 was included as a standard for each assay. The data was normalized with the activity of 100 μM YC-1 (without SNP) as 100%. Mean basal efficacy, in Table 1, was expressed as a percentage of 100 μM YC-1 (without SNP).
The mean activation, in Table 1, was calculated based on the formula: (activity of compound of the present invention at 100 μM with 1 μM SNP)−(activity of compound of on at 100 μM)/(activity of SNP at 1 μM)−(basal activity of sGC).

Structure (SMILES): OCc1ccc(Oc2nn(Cc3ccccc3)c3ccccc23)o1 [Example 1, {5-[(1-benzyl-1H-indazol-3-yl)oxy]-2-furyl}methanol]
Mean efficacy at 100 μM with 1 μM of SNP, [% of YC-1]: 38 % of YC-1 | Emax at 100 µM: 9%

Structure (SMILES): O=C(NCC(O)c1ccccc1)c1ccc(Oc2nn(Cc3ccccc3)c3ccccc23)o1 (centres unmarked) [Example 9, 5-[(1-benzyl-1H-indazol-3-yl)oxy]-N-(2-hydroxy-2-phenylethyl)-2-furamide]
Mean activation at 100 μM: 1.6 | Mean efficacy at 100 μM with 1 μM of SNP, [% of YC-1]: 13 % of YC-1 | Emax at 100 µM: 0%

Structure (SMILES): O=C(NCCN1CCOCC1)c1ccc(Oc2nn(Cc3ccccc3)c3ccccc23)o1 [Example 10, 5-[(1-benzyl-1H-indazol-3-yl)oxy]-N-[2-(4-morpholinyl)ethyl]-2-furamide]
Mean activation at 100 μM: 2.0 | Mean efficacy at 100 μM with 1 μM of SNP, [% of YC-1]: 11 % of YC-1 | Emax at 100 µM: 1%

Structure (SMILES): c1ccc(Cn2nc(Oc3ccccn3)c3ccccc32)cc1 [Example 11, 1-benzyl-3-(2-pyridinyloxy)-1H-indazole]
Mean activation at 100 μM: 2.8 | Mean efficacy at 100 μM with 1 μM of SNP, [% of YC-1]: 70 % of YC-1 | Emax at 100 µM: 9%

Structure (SMILES): c1ccc(Cn2nc(Oc3ncccn3)c3ccccc32)cc1 [Example 12, 1-benzyl-3-(2-pyrimidinyloxy)-1H-indazole]
Mean activation at 100 μM: 2.6 | Mean efficacy at 100 μM with 1 μM of SNP, [% of YC-1]: 43 % of YC-1 | Emax at 100 µM: -1%

Structure (SMILES): FC(F)(F)c1cncc(Oc2nn(Cc3ccccc3)c3ccccc23)c1 [Example 13, 1-benzyl-3-{[5-(trifluoromethyl)-3-pyridinyl]oxy}-1H-indazole]
Mean activation at 100 μM: 1.4 | Mean efficacy at 100 μM with 1 μM of SNP, [% of YC-1]: 15 % of YC-1 | Emax at 100 µM: 3%

Structure (SMILES): NC(=O)c1cccnc1Oc1nn(Cc2ccccc2)c2ccccc12 [Example 14, 2-[(1-benzyl-1H-indazol-3-yl)oxy]nicotinamide]
Mean activation at 100 μM: 1.8 | Mean efficacy at 100 μM with 1 μM of SNP, [% of YC-1]: 23 % of YC-1 | Emax at 100 µM: 0%

Structure (SMILES): CN(C)CCCNC(=O)c1ccccc1Oc1nn(Cc2ccccc2)c2ccccc12 [Example 18, 2-[(1-benzyl-1H-indazol-3-yl)oxy]-N-[3-(dimethylamino)propyl]benzamide]
Mean activation at 100 μM: 1.5 | Mean efficacy at 100 μM with 1 μM of SNP, [% of YC-1]: 10 % of YC-1 | Emax at 100 µM: 5%

Structure (SMILES): O=C(NC1CCC(O)CC1)c1ccccc1Oc1nn(Cc2ccccc2)c2ccccc12 (centres unmarked) [Example 19, 2-[(1-benzyl-1H-indazol-3-yl)oxy]-N-(4-hydroxycyclohexyl)benzamide]
Mean activation at 100 μM: 1.9 | Mean efficacy at 100 μM with 1 μM of SNP, [% of YC-1]: 12 % of YC-1 | Emax at 100 µM: 3%

Structure (SMILES): O=C(N[C@H]1Cc2ccccc2[C@H]1O)c1ccccc1Oc1nn(Cc2ccccc2)c2ccccc12 [Example 20, 2-[(1-benzyl-1H-indazol-3-yl)oxy]-N-[(1R,2S)-1-hydroxy-2,3-dihydro-1H-inden-2-yl]benzamide]
Mean activation at 100 μM: 1.5 | Mean efficacy at 100 μM with 1 μM of SNP, [% of YC-1]: 11 % of YC-1 | Emax at 100 µM: 6%

Structure (SMILES): CCCC(CO)NC(=O)c1ccccc1Oc1nn(Cc2ccccc2)c2ccccc12 (centres unmarked) [Example 21, 2-[(1-benzyl-1H-indazol-3-yl)oxy]-N-[1-(hydroxymethyl)butyl]benzamide]
Mean activation at 100 μM: 1.9 | Mean efficacy at 100 μM with 1 μM of SNP, [% of YC-1]: 15 % of YC-1 | Emax at 100 µM: 5%

Structure (SMILES): O=C(NCC(O)c1ccccc1)c1ccccc1Oc1nn(Cc2ccccc2)c2ccccc12 (centres unmarked) [Example 22, 2-[(1-benzyl-1H-indazol-3-yl)oxy]-N-(2-hydroxy-2-phenylethyl)benzamide]
Mean activation at 100 μM: 2.1 | Mean efficacy at 100 μM with 1 μM of SNP, [% of YC-1]: 13 % of YC-1 | Emax at 100 µM: 2%

Structure (SMILES): CN1CCCC1CCNC(=O)c1ccccc1Oc1nn(Cc2ccccc2)c2ccccc12 (centres unmarked) [Example 23, 2-[(1-benzyl-1H-indazol-3-yl)oxy]-N-[2-(1-methyl-2-pyrrolidinyl)ethyl]benzamide]
Mean activation at 100 μM: 2.2 | Mean efficacy at 100 μM with 1 μM of SNP, [% of YC-1]: 15 % of YC-1 | Emax at 100 µM: 3%

Second part, the compound after the results:

Mean activation at 100 μM: 1.7 | Mean efficacy at 100 μM with 1 μM of SNP, [% of YC-1]: 65 % of YC-1 | Emax at 100 µM: 4%
Structure (SMILES): CN(C)CCCNC(=O)c1ccc(Oc2nn(Cc3ccccc3)c3ccccc23)o1 [Example 5, 5-[(1-benzyl-1H-indazol-3-yl)oxy]-N-[3-(dimethylamino)propyl]-2-furamide]

Mean activation at 100 μM: 3.1 | Mean efficacy at 100 μM with 1 μM of SNP, [% of YC-1]: 25 % of YC-1 | Emax at 100 µM: 3%
Structure (SMILES): CCCC(CO)NC(=O)c1ccc(Oc2nn(Cc3ccccc3)c3ccccc23)o1 (centres unmarked) [Example 7, 5-[(1-benzyl-1H-indazol-3-yl)oxy]-N-[1-(hydroxymethyl)butyl]-2-furamide]

Mean activation at 100 μM: 1.5 | Mean efficacy at 100 μM with 1 μM of SNP, [% of YC-1]: 9 % of YC-1 | Emax at 100 µM: 0%
Structure (SMILES): CC(CCCC(C)(C)O)NC(=O)c1ccc(Oc2nn(Cc3ccccc3)c3ccccc23)o1 (centres unmarked) [Example 8, 5-[(1-benzyl-1H-indazol-3-yl)oxy]-N-(5-hydroxy-1,5-dimethylhexyl)-2-furamide]

Mean activation at 100 μM: 2.6 | Mean efficacy at 100 μM with 1 μM of SNP, [% of YC-1]: 47 % of YC-1 | Emax at 100 µM: 4%
Structure (SMILES): O=C(O)c1ccccc1Oc1nn(Cc2ccccc2)c2ccccc12 [Example 15, 2-[(1-benzyl-1H-indazol-3-yl)oxy]benzoic acid]

Mean activation at 100 μM: 1.9 | Mean efficacy at 100 μM with 1 μM of SNP, [% of YC-1]: 15 % of YC-1 | Emax at 100 µM: 6%
Structure (SMILES): CN(C)CCNC(=O)c1ccccc1Oc1nn(Cc2ccccc2)c2ccccc12 [Example 16, 2-[(1-benzyl-1H-indazol-3-yl)oxy]-N-[2-(dimethylamino)ethyl]benzamide]

Mean activation at 100 μM: 2.0 | Mean efficacy at 100 μM with 1 μM of SNP, [% of YC-1]: 14 % of YC-1 | Emax at 100 µM: 4%
Structure (SMILES): CN(C)CCCN1CCN(C(=O)c2ccccc2Oc2nn(Cc3ccccc3)c3ccccc23)CC1 [Example 17, N-[3-(4-{2-[(1-benzyl-1H-indazol-3-yl)oxy]benzoyl}-1-piperazinyl)propyl]-N,N-dimethylamine]
